# Columns and labels:
# [1] = tested on: caspase-7; test: Western blotting of caspase-7 cleavage in MCF-7 cells; assay type: cell-based, human; conditions: MCF-7, 17 hrs; M4N 80 μM, etoposide 20 μM, rapamycin 20 μM, UCN-01 5 μM
# Description: (§1) The sample volumes were adjusted by the total protein amount. Protein assay was performed by Bio-Rad Protein Assay (Bio-Rad Laboratories, Inc. Hercules, Calif.). The samples were resolved by the standard SDS-polyacrylamide gel electrophoresis and transferred to nitrocellulose membrane (Amersham Biosciences, Bjorkgatan, Sweden). The membranes were blocked with skim milk, and incubated with primary antibodies at 4° C. overnight and then with secondary antibody conjugated with horse radish peroxidase at room temperature for 2 hrs. The signals were detected by western blot chemiluminescence reagent plus (New England Nuclear Life Science Products, Boston, Mass.).
# The effect of the combination treatments on cell death and autophagy was examined in two cell lines other than LNCaP cells.
# [2] = tested on: LNCaP tumors; test: Nude mice orthotopically implanted with LNCaP tumors: life-span and lung metastasis; assay type: in vivo, nude (nu/nu) mice; conditions: LNCaP tumor-bearing nude mice; lung sections, hematoxylin and eosin
# Description: T-cell deficient male nude mice (nu/nu) were obtained from Charles River Laboratories (Wilmington, Mass.). […] For drug combinations (M4N/etoposide, M4N/rapamycin, and M4N/UCN-01), etoposide, rapamycin, or UCN-01 powder was further added to M4N in CPE 25/30 to make a final concentration of M4N (10 mg/ml) respectively with etoposide (4 mg/ml), rapamycin (3.75 mg/ml), or UCN-01 (884 g/ml) in CPE 25/30 formulation. These drugs were intravenously injected into the tail vein of mice at the daily dose of 0.1 ml per mouse. Therefore dosages of each injection were 1 mg/shot (for M4N), 0.4 mg/shot (for etoposide), 0.375 mg/shot (for rapamycin), and 88.4 μg/shot (for UCN-01). The drug injections were performed once every day; beginning at day 3 until day 31 after tumor inoculation for the combination treatment with either etoposide or rapamycin and until day 25 after tumor inoculation for the combination treatment with UCN-01. After this the drugs were injected once a week for etoposide/rapamycin combination treatment and once every three days until day 35 for UCN-01 combination treatment.
# LNCaP cells growing subconfluently were collected into the tissue culture medium without fetal bovine serum and antibiotics. The cell concentration was adjusted by the same medium. […]
# [3] = tested on: BNIP3 mRNA; test: Northern blotting of BNIP3 mRNA in LNCaP cells; assay type: cell-based, human; conditions: 6 hr exposure to hypoxic condition, M4N 80 μM
# Description: RNA was extracted from the cells by a Trizol Reagent (Invitrogen, Carlsbad, Calif.). Twentyfive μg of RNA per lane was dissolved on the 1.5% agarose gel containing 20 mM NaPO4 (pH 6.8) and 6% formaldehyde. RNA was transferred to a Nytran SPC membrane (Sigma-Aldrich, St. Louis, Mo.). The probe for BNIP3 was derived from a 199 bp fragment DNA generated by RT-PCR using a SuperScript III First-Strand Synthesis System for RT-PCR (Invitrogen, Carlsbad, Calif.), 5′-primer ‘[…]’ and 3′-primer ‘[…]’. The PCR fragment was cloned into a topo vector (Invitrogen, Carlsbad, Calif.). After midi-prep, the DNA fragment was excised from the vector and dissolved on the 2% agarose gel and purified. The extracted DNA fragment was labeled by ^32P-αdATP, Klenow fragment, and random hexagonal primers. After unincorporated ^32P-αdATP was removed by a Sephadex G-50 spun column, the labeled DNA fragment was used as a probe. After hybridization, the membrane was washed and autoradiographed to a BioMax MR film (Kodak, Rochester, N.Y.).
# BNIP3 is a member of Bcl-2 family proteins which sends pro-apoptotic signal to mitochondria and induces mitochondrial membrane potential depolarization. […] This implies that BNIP3 is involved in autophagy as well as cell death. […]
# [4] = tested on: mitochondrial membrane potential (ΔΨm); test: Measurement of mitochondrial membrane potential with JC-1 dye in LNCaP cells; assay type: cell-based, human
# Description: The cells were cultured in 6 well microwell dishes and treated with the culture medium containing JC-1 dye (Cayman Chemical, Ann Arbor, Mich.) for 30 min, according to the company's protocol. After the cells had been washed carefully, they were treated with M4N for 5 hrs. The cells were observed through B29/Zeiss LSM 510 μMETA laser confocal microscope (Carl Zeiss, Germany). The cell images were captured by two different excitation lights (with 488 nm argon-ion and 568 nm argon-krypton lasers). Both JC-1 monomer and J-aggregates are detected by 488 nm excitation light while only J-aggregates are detected by 568 nm excitation light. The ratio of the intensity of the emission light excited by 568 nm light to that of the emission light excited by 488 nm light at every pixel of images (The ratio should indicate the mitochondrial potential) was calculated by the imaging software (Carl Zeiss, Germany). In the figure the ratio was shown by pseudo color. Red color indicates high ratio (high potential) while dark blue indicates low ratio (low potential). Yellow through green to light blue represents medium ratio (medium potential).
# Since BNIP3 functions to activate mitochondria-related cell death machinery and induce mitochondrial membrane depolarization, the effect of M4N on the mitochondrial membrane potential (ΔΨm) was examined (FIG. 3C). […]
# [5] = tested on: LC3B-II; test: Western blotting of LC3B-I&II (autophagy) in LNCaP cells; assay type: cell-based, human; conditions: 18 hrs, in the presence of Baflomycin A1 (100 nM), M4N 80 μM
# Description: as §1
# [6] = tested on: LC3B-II; test: Western blotting of LC3B-II (autophagy) in HepG2 cells; assay type: cell-based, human; conditions: HepG2, 15 hrs; M4N 80 μM
# Description: as §1, with “Mass.). The effect of […] on autophagy was examined using the western blotting for LC3B-II in the presence of Baflomycin A1 in MCF-7 and HepG2 cells (FIG. 4D).” for “Mass.).”
SMILES,caspase-7 cleavage [1],mice with obvious lung metastasis (histology) [2],BNIP3 mRNA expression [3],"mitochondrial membrane potential (ΔΨm) ([4]; 5 hrs, M4N 80 μM, JC-1 dye)",depolarization of mitochondrial membrane potential induced by rottlerin or Ly294002 ([4]; concomitant treatment with M4N),net LC3B-II formation (net autophagic activity) [5],autophagy (LC3B-II in the presence of Baflomycin A1) [6]
"CN[C@@H]1C[C@H]2O[C@@](C)([C@@H]1OC)n1c3ccccc3c3c4c(c5c6ccccc6n2c5c31)C(=O)N[C@H]4O [UCN-01, 7-hydroxystaurosporine]",detected,–,–,–,–,–,–
"COc1ccc(C[C@@H](C)[C@@H](C)Cc2ccc(OC)c(OC)c2)cc1OC [M4N, Tetra-O-methyl nordihyroguaiaretic acid]",–,2 out of 4,suppressed the increase of BNIP3 mRNA expression,hyperpolarized,reversed to the normal potential to some extent,almost totally suppressed,blocks autophagy

# Reference: patent publication US9101567B2, “Suppression of cancer growth and metastasis using nordihydroguaiaretic acid derivatives with 7-hydroxystaurosporine” (The Johns Hopkins University, priority 2010, dated 2015)
